Measured values published in US20190175609A1, “THERAPEUTIC USES OF A C-RAF INHIBITOR” (Novartis AG, priority 2016, published 2019).

Key:
[1] = biological target: b-Raf (Homo sapiens, UniProt P15056); assay: b-Raf biochemical assay; conditions: read-out: b-Raf IC-50
[2] = biological target: c-Raf FL (Homo sapiens, UniProt P04049); assay: c-Raf FL biochemical assay; conditions: read-out: c-Raf FL IC-50
[3] = system: Calu-6 (KRAS Q61K), HCT116 (KRAS G13D); assay: cell-based anti-proliferative assay, Calu-6 and HCT116; conditions: Homo sapiens; range over Calu-6 and HCT116; read-out: IC50, inhibition of proliferation
[4] = system: Calu-6 (KRAS Q61K) xenografts; assay: Calu-6 xenograft in nude mice; format: in vivo
Description: Female nude tumor bearing Calu6 mice, n=6 per group were randomized into treatment groups on day 17 following tumor implantation, when the average tumor volume was 180 mm3. […] Dosing volume was 10 mL/kg. Tumor volumes were collected at the time of randomization and twice weekly thereafter for the study duration.
(§1) Regressions were also achieved in a second human NSCLC model, NCI-H358, at the 200 mg/kg QD dose in mice and in the human ovarian Hey-A8 xenograft at doses as low as 30 mg/kg QD in mice.

[5] = system: Calu-6 (KRAS Q61K) xenografts; assay: Calu-6 xenograft in nude rats; format: in vivo
[6] = system: NCI-H358 (KRAS G12C) xenografts; assay: NCI-H358 xenograft in mice; format: in vivo
Description: SCID beige female tumor bearing NCI-H358 mice, n=8 per group, were randomized into 3 groups 14 days post tumor cell inoculation with an average tumor volume range of 259.44-262.47 mm^3.
Tumor volumes were measured by digital caliper 3 times a week and body weights of all animals were recorded through the course of treatment.
as §1

[7] = system: Hey-A8 (KRAS G12D, BRAF G464E) xenografts; assay: Hey-A8 ovarian xenograft in mice; format: in vivo
Description: as §1

[8] = system: SKMEL30 cells (NRAS Q61K melanoma cells); assay: SKMEL30 NRAS-mutant melanoma xenograft in nude mice; format: in vivo; conditions: for % regression: day 21 post-implant (9 days of treatment)
Description: […]. Mice were randomized into treatment groups on day 12 post implantation, when the average tumor volume was ˜200 mm^3. […] Treatments began on day 12 and continued until day 21 post implantation. Tumor volume and body weights were collected at the time of randomization and twice per week for the study duration. Tumor volume was determined by measurement with calipers and calculated using a modified ellipsoid formula, where tumor volume (TV) (mm^3)=[((1×w2)×3.14159))/6], where 1 is the longest axis of the tumor and w is perpendicular to 1. Mice were monitored for tumor growth, body weight and body condition. Animal well-being and behavior were monitored twice weekly. General health of mice was monitored daily. The anti-tumor activity was determined by assessing % T/C or % regression on day 21 post-implant (9 days of treatment).

[9] = system: H727 Model; assay: H727 model, KRASmt NSCLC xenograft; format: in vivo, mice; conditions: FIGS. 15A, 15B, 15C (H358, Calu6, H727 models); H727: 100 mg/kg daily oral, 14 days
[10] = tolerability in KRAS- and NRAS-mutant xenograft models (body weight); format: in vivo; conditions: all xenograft models
Description: as §1

[11] = system: non-small cell lung cancer (NSCLC); assay: Phase I dose finding study of Compound A, single agent; format: in vivo, human; conditions: one NSCLC subject, 1200 mg QD, preliminary
Description: Provisional doses for dose escalation can be found in the Table below. […]
In the dose expansion part, patients in Compound A single agent arm are treated with Compound A at the recommended dose and regimen selected based on the dose escalation data. This dose is expected to be safe and tolerated in adult patients in all indications included in the trial. The single agent arm consists of 3 distinct groups: KRAS- and/or BRAF-mutant NSCLC, KRAS- and/or BRAF-mutant ovarian cancer, and patients with other solid tumors (which may be advanced) harboring MAPK pathway alteration(s) such as relapsed/refractory melanoma after failure of BRAFi/MEKi combination therapy and NRAS-mutant melanoma patients.
This was further confirmed by preliminary results obtained from the clinical trial.

[12] = predicted human PK of Compound A
[13] = cell-based anti-proliferative assay, melanoma and NSCLC lines; conditions: Homo sapiens, read-out: IC50, inhibition of proliferation
[14] = system: advanced NRAS-mutant melanoma; conditions: cited from earlier work
[15] = patients with NRAS-mutant melanoma

Chain of b-Raf (P15056 2-766): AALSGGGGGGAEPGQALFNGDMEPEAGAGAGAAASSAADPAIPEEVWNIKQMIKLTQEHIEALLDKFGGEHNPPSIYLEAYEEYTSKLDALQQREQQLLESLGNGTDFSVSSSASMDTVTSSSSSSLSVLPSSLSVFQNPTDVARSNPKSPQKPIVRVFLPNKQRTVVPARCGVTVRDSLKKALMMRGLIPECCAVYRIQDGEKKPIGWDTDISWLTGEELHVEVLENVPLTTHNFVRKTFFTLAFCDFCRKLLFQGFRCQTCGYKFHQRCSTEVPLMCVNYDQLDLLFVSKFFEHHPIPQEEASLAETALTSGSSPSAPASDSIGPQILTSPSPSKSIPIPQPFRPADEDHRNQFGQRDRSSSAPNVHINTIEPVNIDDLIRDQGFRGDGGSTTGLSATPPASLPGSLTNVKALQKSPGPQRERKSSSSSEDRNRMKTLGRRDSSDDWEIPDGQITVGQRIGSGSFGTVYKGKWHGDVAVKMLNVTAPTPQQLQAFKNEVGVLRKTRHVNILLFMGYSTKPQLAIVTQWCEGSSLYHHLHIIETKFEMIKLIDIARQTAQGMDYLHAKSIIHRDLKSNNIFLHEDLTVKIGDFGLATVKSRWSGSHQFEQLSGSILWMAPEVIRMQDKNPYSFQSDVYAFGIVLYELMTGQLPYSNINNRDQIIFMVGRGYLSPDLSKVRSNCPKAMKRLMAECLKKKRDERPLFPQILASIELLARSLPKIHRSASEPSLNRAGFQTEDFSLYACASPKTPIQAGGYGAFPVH
Chain of c-Raf FL (P04049 whole entry): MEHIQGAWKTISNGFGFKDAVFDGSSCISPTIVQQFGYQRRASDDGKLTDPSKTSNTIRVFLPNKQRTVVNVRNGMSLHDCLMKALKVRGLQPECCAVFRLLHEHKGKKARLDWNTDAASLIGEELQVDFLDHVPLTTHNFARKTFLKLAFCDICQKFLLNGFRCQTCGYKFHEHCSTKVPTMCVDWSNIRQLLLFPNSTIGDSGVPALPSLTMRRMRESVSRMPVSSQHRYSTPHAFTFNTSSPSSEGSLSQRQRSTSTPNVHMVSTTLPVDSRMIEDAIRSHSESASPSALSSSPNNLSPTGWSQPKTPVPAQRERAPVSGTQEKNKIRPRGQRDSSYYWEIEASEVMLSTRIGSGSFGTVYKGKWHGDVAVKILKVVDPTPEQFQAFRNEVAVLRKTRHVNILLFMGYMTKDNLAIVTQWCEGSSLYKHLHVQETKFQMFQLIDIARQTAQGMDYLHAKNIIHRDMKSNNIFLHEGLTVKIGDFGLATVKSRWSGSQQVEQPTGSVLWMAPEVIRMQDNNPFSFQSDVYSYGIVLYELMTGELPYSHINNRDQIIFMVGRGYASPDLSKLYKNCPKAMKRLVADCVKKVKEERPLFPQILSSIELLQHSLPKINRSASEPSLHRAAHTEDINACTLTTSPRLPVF

## Cc1ccc(NC(=O)c2ccnc(C(F)(F)F)c2)cc1-c1cc(OCCO)nc(N2CCOCC2)c1 [COMPOUND A, N-(3-(2-(2-hydroxyethoxy)-6-morpholinopyridin-4-yl)-4-methylphenyl)-2-(trifluoromethyl)isonicotinamide]
[1]
  IC50: 0.73 nM
[2]
  IC50: 0.2 nM
[3]
  IC50: 200 to 1200 nM
[4]; 30 mg/kg QD, mice
  anti-tumor effect: Tumor stasis
[4]; 100, 200, and 300 mg/kg once daily (QD), nude mice
  anti-tumor effect: regressions
[4]; Calu-6 xenograft, dose not stated
  anti-tumor effect: tumor regression
[4]; Calu-6 xenograft, dose not stated, listed as Compound A
  anti-tumor effect: tumor regressions
[5]; 35 mg/kg QD, rats
  anti-tumor effect: Tumor stasis
[5]; 75 and 150 mg/kg QD, nude rats
  anti-tumor effect: regressions
[6]; 200 mg/kg QD, mice
  anti-tumor effect: Regressions
[6]; NCI-H358 xenograft, dose not stated
  anti-tumor effect: tumor regression
[6]; NCI-H358 xenograft, dose not stated, listed as Compound A
  anti-tumor effect: tumor regressions
[7]; Hey-A8 xenograft, dose not stated
  anti-tumor effect: tumor regression
[7]; Hey-A8 xenograft, dose not stated, listed as Compound A
  anti-tumor effect: tumor regressions
[7]; doses as low as 30 mg/kg QD, mice
  anti-tumor effect: Regressions
[8]; 25 mg/kg bid
  % regression: 48%
[8]; 100 mg/kg bid
  % regression: 59%
[8]; 25 and 100 mg/kg bid, body weight, toxicity signs, mortality
  tolerability: well tolerated
[8]; SK-MEL-30 melanoma model, dose not stated
  anti-tumor effect: tumor regression
[9]
  single agent activity in KRASmt NSCLC models: showed single agent activity
[10]
  tolerability judged by body weight loss: well tolerated
[11]
  partial response according to RECIST: −35%
[12]
  predicted half-life: ~9 h
[13]
  IC50: 200 to 1200 nM

## Cn1cnc2c(F)c(Nc3ccc(Br)cc3F)c(C(=O)NOCCO)cc21 [binimetinib]
[14]; binimetinib vs. dacarbazine
  HR for PFS, in favor of binimetinib: 0.62 (0.47-0.80)
[14]; [15]
  discontinuation rate as a result of adverse events suspected to be related to study drug: 20%
  median PFS (95% CI): 2.8 (95% CI: 2.8-3.6)
  overall response rate: 15%
  overall survival (95% CI): 11.0 (95% CI: 8.9-13.6) months

## CN(C)/N=N/c1[nH]cnc1C(N)=O [dacarbazine]
[14]; [15]
  discontinuation rate as a result of adverse events suspected to be related to study drug: 5%
